Measured values published in patent US5185363A, “Urea based lipoxygenase inhibiting compounds” (Abbott Laboratories, priority 1991, dated 1993).

Target: T1, 5-Lipoxygenase from RBL-1 20,000 xg Supernatant (Rattus norvegicus, UniProt P12527)
T1 construct: supermatant from 1.5 million homogenized RBL-1 cells; endogenous in cells; host or cells: RBL-1 cells, 20,000 x g supernatant of homogenate
T1 sequence (P12527 1-673): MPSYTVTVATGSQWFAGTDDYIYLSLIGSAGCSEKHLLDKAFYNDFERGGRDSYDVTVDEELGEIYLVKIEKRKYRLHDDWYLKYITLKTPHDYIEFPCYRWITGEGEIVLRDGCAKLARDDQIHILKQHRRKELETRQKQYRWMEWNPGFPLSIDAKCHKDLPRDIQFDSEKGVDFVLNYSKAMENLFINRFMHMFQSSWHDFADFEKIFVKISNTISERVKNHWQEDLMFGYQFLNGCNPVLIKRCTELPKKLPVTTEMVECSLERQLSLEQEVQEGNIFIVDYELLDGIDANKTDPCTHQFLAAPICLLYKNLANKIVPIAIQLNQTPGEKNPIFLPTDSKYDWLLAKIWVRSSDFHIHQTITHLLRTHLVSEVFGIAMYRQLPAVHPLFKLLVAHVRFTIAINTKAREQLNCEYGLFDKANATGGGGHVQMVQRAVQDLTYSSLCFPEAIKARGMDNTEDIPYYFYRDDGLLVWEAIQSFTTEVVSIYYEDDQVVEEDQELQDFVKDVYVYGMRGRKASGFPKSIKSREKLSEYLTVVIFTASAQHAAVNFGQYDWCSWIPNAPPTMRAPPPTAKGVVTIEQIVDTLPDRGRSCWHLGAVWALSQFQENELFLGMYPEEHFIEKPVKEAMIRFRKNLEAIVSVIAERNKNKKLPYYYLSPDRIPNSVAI
Experiment: In vitro inhibition of 5-lipoxygenase from RBL-1 20,000 xg supernatant
Assay type: biochemical
Settings: radiolabeled arachidonic acid
Method: Assays to determine 5-lipoxygenase inhibitory activity were performed in […] incubations containing the 20,000xg supermatant from 1.5 million homogenized RBL-1 cells and various concentrations of the test compound. Reactions were initiated by addition of radiolabeled arachidonic acid and terminated by acidification and ether extraction. Reaction products were separated from nonconverted substrate by thin layer chromatography and measured by liquid scintillation spectroscopy. All incubations are performed in triplicate. Inhibition of 5-lipoxygenase activity was calculated as the ratio of the amount of product formed in the presence and absence of inhibitor. […] (Dyer, R.D.; Haviv, F.; Hanel, A. M.; Bornemier, D. A.; Carter, G. W. Fed. Proc., Fed. Am. Soc. Exp. Biol. 1984, 43, 1462A).

Row | SMILES | IC50
1 | CC(c1ccc(OCc2ccccc2)cc1)N(O)C(=O)N(C)C (centres unmarked) [Example 3] | 0.68 µM
2 | CNC(=O)N(O)Cc1ccc(OCc2ccccc2)cc1 [Example 6, N-hydroxy-N-(4-phenylmethoxyphenylmethyl)-N'-methyl-urea] | 0.54 µM
3 | CC(c1ccc2ccccc2c1)N(O)C(=O)NO (centres unmarked) [Example 10, N,N'-dihydroxy-N-(1-(2-naphthyl)ethyl) urea] | 0.87 µM
4 | CCCCOc1ccc(C(C)N(O)C(N)=O)cc1 (centres unmarked) [Example 11, N-hydroxy-N-(1-(4-butoxyphenyl)ethyl) urea] | 1.1 µM
5 | CCCCOc1cccc(C(C)N(O)C(N)=O)c1 (centres unmarked) [Example 13, N-hydroxy-N-(1-(3-butoxyphenyl)ethyl) urea] | 2.8 µM
6 | Cc1ccsc1C(C)N(O)C(N)=O (centres unmarked) [Example 46, N-hydroxy-N-1-(3-methylthien-2-yl)ethyl urea] | 2.1 µM
7 | CC(c1ccc(-c2ccccn2)s1)N(O)C(N)=O (centres unmarked) [Example 48, N-hydroxy-N-(1-(5-pyrid-2-yl)thien-2-yl)ethyl urea] | 1.7 µM
8 | CNC(=O)N(O)Cc1ccc(C)s1 [Example 52, N-hydroxy-N-1-(5-methylthien-2-yl)methyl-N'-methyl urea] | 3.9 µM
9 | CCOC(=O)CNC(=O)N(O)C(C)c1cc(C)sc1C (centres unmarked) [Example 59] | 0.99 µM
10 | Cc1cc(C(C)N(O)C(=O)NCCO)c(C)s1 (centres unmarked) [Example 60, N-hydroxy-N-(1-(2,5-dimethylthien-3-yl)ethyl)-N'-(2-hydroxyethyl) urea] | 3.5 µM
11 | COC(=O)CCCNC(=O)N(O)C(C)c1ccsc1 (centres unmarked) [Example 61] | 2.1 µM
12 | CCOC(=O)CNC(=O)N(O)C(C)c1ccsc1 (centres unmarked) [Example 62] | 4.2 µM
13 | NC(=O)N(O)CCCc1ccsc1 [Example 69, N-hydroxy-N-(3-(1-thien-3-yl)propyl) urea] | 1.5 µM
14 | Cc1ccc(CC(C)N(O)C(N)=O)s1 (centres unmarked) [Example 72, N-Hydroxy-N-(2-(1-(5-methylthien-2-yl))propyl) urea] | 0.8 µM
15 | CNC(=O)N(O)C(C)c1ccc(Br)cc1 (centres unmarked) [Example 98, N-Hydroxy-N-1-(4-bromophenyl)ethyl-N'-methyl-urea] | 1.1 µM
16 | CNC(=O)N(O)C(C)c1ccc(F)cc1F (centres unmarked) [Example 104, N-Hydroxy-N-(1-(2,4-difluorophenyl)ethyl)-N'-methylurea] | 3.9 µM

Row | SMILES | IC50
17 | CNC(=O)N(O)C(C)c1ccc(F)cc1 (centres unmarked) [Example 110, N-Hydroxy-N-(1-(4-fluorophenyl)ethyl)-N'-methyl urea] | 2.3 µM
18 | CNC(=O)N(O)C(C)c1ccc(F)c(Br)c1 (centres unmarked) [Example 114, N-Hydroxy-N-(1-(3-bromo-4-fluorophenyl)ethyl)-N'-methyl urea] | 0.9 µM
19 | CNC(=O)N(O)C(C)c1ccc(C)c(Br)c1 (centres unmarked) [Example 115, N-Hydroxy-N-(1-(3-bromo-4-methylphenyl)ethyl)-N'-methyl urea] | 0.6 µM
20 | COc1ccc(C(C)N(O)C(N)=O)cc1 (centres unmarked) [Example 116, N-Hydroxy-N-(1-(4-methoxyphenyl)ethyl) urea] | 4.4 µM
21 | CNC(=O)N(O)C(C)c1ccc(OC)cc1 (centres unmarked) [Example 117, N-Hydroxy-N-(1-(4-methoxyphenyl)ethyl)-N'-methyl urea] | 4.43 µM
22 | CCCCOc1ccc(C(C)N(O)C(N)=O)cc1 (centres unmarked) [Example 119, N-Hydroxy-N-(1-(4-butoxyphenyl)ethyl) urea] | 0.53 µM
23 | C=CCN(CC=C)c1ccc(C(C)N(O)C(N)=O)cc1 (centres unmarked) [Example 121, N-Hydroxy-N-(1-(4-bis-allylaminophenyl)ethyl) urea] | 0.74 µM
24 | CC(c1ccc(F)c(Br)c1)N(O)C(N)=O (centres unmarked) [Example 122, N-Hydroxy-N-(1-(3-bromo-4-fluorophenyl)ethyl) urea] | 0.8 µM
25 | CNC(=O)N(O)C(C)c1ccc(Cl)c(C)c1 (centres unmarked) [Example 124, N-Hydroxy-N-(1-(4-chloro-3-methylphenyl)ethyl)-N'-methyl urea] | 0.6 µM
26 | CNC(=O)N(O)Cc1cccc(Oc2ccccc2)c1 [Example 126] | 0.8 µM
27 | NC(=O)N(O)Cc1sccc1Br [Example 127, N-hydroxy-N-(3-bromothien-2-yl)methyl urea] | 1.2 µM
28 | NC(=O)N(O)Cc1cc(Br)cs1 [Example 128, N-hydroxy-N-(4-bromothien-2-yl)methyl urea] | 2.5 µM
29 | NC(=O)N(O)Cc1ccc(Cl)s1 [Example 129, N-hydroxy-N-(5-chlorothien-2-yl)methyl urea] | 2 µM
30 | NC(=O)N(O)Cc1ccc(Br)s1 [Example 130, N-hydroxy-N-(5-bromothien-2-yl)methyl urea] | 0.9 µM
31 | CC(c1cc(Br)cs1)N(O)C(N)=O (centres unmarked) [Example 132, N-hydroxy-N-[1-(4-bromothien-2-yl)ethyl]urea] | 0.9 µM
32 | CC(c1ccc(Br)s1)N(O)C(N)=O (centres unmarked) [Example 133, N-hydroxy-N-[1-(5-bromothien-2-yl)ethyl]urea] | 0.9 µM

Stronger by IC50, values ahead:

Row | IC50 | SMILES
33 | 0.37 µM | CNC(=O)N(O)C(C)c1ccc(OCc2ccccc2)cc1 (centres unmarked) [Example 2, N-hydroxy-N-1-(4-phenylmethoxyphenyl) ethyl N'-methyl urea]
34 | 0.33 µM | CC(c1ccc(OCCc2ccccc2)cc1)N(O)C(N)=O (centres unmarked) [Example 8, N-hydroxy-N-(1-(4-(2-phenyl)ethoxyphenyl)ethyl) urea]
35 | 0.2 µM | NC(=O)N(O)Cc1ccc(-c2ccccc2)s1 [Example 53, N-hydroxy-N-(1-(5-phenylthien-2-yl)methyl) urea]
36 | 0.31 µM | CNC(=O)N(O)Cc1ccc(-c2ccccc2)s1 [Example 54, N-hydroxy-N-(1-(5-phenylthien-2-yl)methyl)-N'-methyl urea]
37 | 0.42 µM | CC(c1ccc(Cc2ccccc2)s1)N(O)C(N)=O (centres unmarked) [Example 57, N-hydoxy-N-(1-(5-benzylthien-2-yl)ethyl) urea]
38 | 0.4 µM | CNC(=O)N(O)C(C)c1ccc(Cl)cc1 (centres unmarked) [Example 108, N-Hydroxy-N-(1-(4-chlorophenyl)ethyl)-N'-methyl urea]
39 | 0.5 µM | Cc1cc(C(C)N(O)C(N)=O)ccc1Cl (centres unmarked) [Example 123, N-Hydroxy-N-(1-(4-chloro-3-methylphenyl)ethyl) urea]
40 | 0.4 µM | NC(=O)N(O)Cc1cccc(Oc2ccccc2)c1 [Example 125]
41 | 0.3 µM | NC(=O)N(O)Cc1sccc1Sc1ccccc1 [Example 134, N-hydroxy-N-[3-(phenylthio)thien-2-yl]methyl urea]
42 | 0.2 µM | NC(=O)N(O)Cc1ccc(Sc2ccccc2)s1 [Example 135, N-hydroxy-N-[5-(phenylthio)thien-2-yl]methyl urea]
43 | 0.4 µM | NC(=O)N(O)Cc1csc(Sc2ccccc2)c1 [Example 137, N-hydroxy-N-[5-(phenylthio)thien-3-yl]methyl urea]
44 | 0.4 µM | CC(c1ccc(Sc2ccccc2)s1)N(O)C(N)=O (centres unmarked) [Example 139, N-hydroxy-N-[1-(5-(phenylthio)-thien-2-yl)ethyl]urea]
45 | 0.4 µM | NC(=O)N(O)Cc1sccc1Sc1ccc(O)cc1 [Example 140, N-hydroxy-N-[3-(4-hydroxyphenylthio)thien-2-yl]methyl urea]
46 | 0.2 µM | NC(=O)N(O)Cc1sccc1Sc1ccc(Br)cc1 [Example 141, N-hydroxy-N-[3-(4-bromophenylthio)thien-2-yl]methyl urea]
47 | 0.3 µM | NC(=O)N(O)Cc1sccc1Sc1ccc(Cl)cc1 [Example 142, N-hydroxy-N-[3-(4-chlorophenylthio)thien-2-yl]methyl urea]
